Experimental data published in paper PMC10384602 (Pharmaceuticals, 2023).

Tests used:
[1] = logD7.4 in octanol/buffer mixture; format: physicochemical; conditions: pH 7.4, room temperature
[2] = Radiochemical stability of the formulated product on standing at room temperature; format: physicochemical; conditions: after standing for 90 min at room temperature

For O=C(Cc1ccccc1)Nc1nnc(CCSCCc2nnc(N[11C](=O)Cc3ccccc3)s2)s1 [[^11C]BPTES], the logD [1] was 3.59 and the “radiochemical purity after standing” value [2] was over 95%.
